Data on nine compounds can be found in patent publication US7300925B2, “2-ethyl and 2-ethylidene-19-nor-vitamin D compounds” (Wisconsin Alumni Research Foundation, priority 2000, dated 2007).

The test system of test [1] is bone calcium mobilization. In words: bone calcium mobilization (serum Ca) in vitamin D-deficient rats on a low-calcium diet. It counts as in vivo. As to conditions: for Serum Ca (mean ± SEM): vitamin D-deficient rats, low-calcium diet, 24 hours after the last dose.
Test [2] deals with intestinal calcium transport. In words: support of intestinal calcium transport in vitamin D-deficient rats on a low-calcium diet. As to conditions: for Ca transport S/M (mean ± SEM): vitamin D-deficient rats, low-calcium diet, 24 hours after the last dose. It counts as in vivo.
For test [3], the system named is human promyelocyte HL-60 cells. In words: induction of differentiation of HL-60 cells into monocytes. As to conditions: compared with 1α,25-(OH)2D3; FIG. 6a, 6b. It counts as cell-based. The protocol:
FIG. 6a is a graph illustrating the percent HL-60 cell differentiation as a function of the concentration of the 2-ethylidene-19-nor-vitamins as compared to 1α,25-dihydroxyvitamin D3; and
FIG. 6b is a graph illustrating the percent HL-60 cell differentiation as a function of the concentration of the 2α and 2β-ethyl-19-nor-vitamins as compared to 1α,25-dihydroxyvitamin D3.
The synthesized vitamins were tested for their ability to bind the porcine intestinal vitamin D receptor. […] In the next assay, the cellular activity of the synthesized compounds was established by studying their ability to induce differentiation of human promyelocyte HL-60 cells into monocytes.

Where [4] appears, read: 130 pmol daily i.p. for seven days.
Where [5] appears, read: 260 pmol daily i.p. for seven days.
Setting [6] is: 65 pmol daily i.p. for seven days.

Values joined by “and” are separate entries in the source; they are usually repeats but may differ in a detail not shown here. Equal entries are not always repeated.

With `C=C1/C(=C\C=C2/CCC[C@]3(C)[C@@H]([C@H](C)CCCC(C)(C)O)CC[C@@H]23)C[C@@H](O)C[C@@H]1O` [Compound 1, 1α,25-dihydroxyvitamin D3, reference compound], the “Serum Ca (mean ± SEM)” value was 5.2 ± 0.2 and 5.1 ± 0.3 in test [1] (setting [4]); 5.8 ± 0.3 and 6.4 ± 0.4 and 5.8 ± 0.1 in test [1] (setting [5]). The “Ca transport S/M (mean ± SEM)” value in test [2] (setting [4]) is 4.9 ± 0.7 and 5.5 ± 0.5; in test [2] (setting [5]), 5.9 ± 0.4 and 6.0 ± 0.9 and 6.5 ± 0.9.

With `CC=C1C(O)CC(=CC=C2CCCC3(C)C2CCC3C(C)CCCC(C)(C)O)CC1O` (stereo not drawn) [Compound 4a, 1α,25-dihydroxy-2(E)-ethylidene-19-nor-vitamin D3], the “Serum Ca (mean ± SEM)” value in test [1] (setting [6]) stood at 4.5 ± 0.1; in test [1] (setting [4]) it was 5.2 ± 0.2. Further, the “Ca transport S/M (mean ± SEM)” value in test [2] (setting [6]) was 5.0 ± 0.4; in test [2] (setting [4]), 6.8 ± 0.4.

Consider `CC=C1[C@H](O)CC(=C/C=C2\CCC[C@@]3(C)C2CCC3[C@@H](C)CCCC(C)(C)O)C[C@H]1O` (stereo partly drawn) [Compound 4b, 2-ethylidene-19-nor-(20S)-1α,25-(OH)2D3 (E-isomer)], for which the “Serum Ca (mean ± SEM)” value in test [1] (setting [6]) worked out at 8.2 ± 0.3; in test [1] (setting [4]) it was 12.1 ± 0.6. Moreover, the “calcemic activity in vivo in rats (in words)” value in test [1] (overall judgement of Table 1 (intestine and bone)) is on record as “especially potent”. Moreover, the “Ca transport S/M (mean ± SEM)” value in test [2] (setting [6]) is 9.0 ± 0.3; in test [2] (setting [4]) it was 5.8 ± 0.8. In test [3], the “ability to induce differentiation of HL-60 cells into monocytes (in words)” value is reported as “more potent than 1α,25-(OH)2D3”.

Consider `CC=C1C(O)CC(=CC=C2CCCC3(C)C2CCC3C(C)CCCC(C)(C)O)CC1O` (stereo not drawn) [Compound 5a, 1α,25-dihydroxy-2(Z)-ethylidene-19-nor-vitamin D3], for which the entries for the “Serum Ca (mean ± SEM)” value in test [1] (setting [6]) and in test [1] (setting [4]) were 4.4 ± 0.2 and 4.2 ± 0.0, respectively. For the same compound, the “Ca transport S/M (mean ± SEM)” value in test [2] (setting [6]) came out at 4.4 ± 0.4; in test [2] (setting [4]) it was 5.7 ± 0.9.

As to `CC=C1[C@H](O)CC(=C/C=C2\CCC[C@@]3(C)C2CCC3[C@@H](C)CCCC(C)(C)O)C[C@H]1O` (stereo partly drawn) [Compound 5b, 2-ethylidene-19-nor-(20S)-1α,25-(OH)2D3 (Z-isomer)], the “Serum Ca (mean ± SEM)” value in test [1] (setting [6]) is reported as 4.0 ± 0.3; in test [1] (setting [4]) it was 4.0 ± 0.1. Further, the “Ca transport S/M (mean ± SEM)” value stood at 4.3 ± 0.7 in test [2] (setting [6]) and 3.8 ± 0.3 in test [2] (setting [4]).

With `CCC1C(O)CC(=CC=C2CCCC3(C)C2CCC3C(C)CCCC(C)(C)O)CC1O` (stereo not drawn) [Compound 6a, 2α-ethyl-19-nor-1α,25-(OH)2D3], the “Serum Ca (mean ± SEM)” value in test [1] (setting [5]) is 5.1 ± 0.1. Moreover, the “Ca transport S/M (mean ± SEM)” value in test [2] (setting [5]) came to 4.0 ± 0.4.

On to `CCC1C(O)CC(=CC=C2CCCC3(C)C2CCC3C(C)CCCC(C)(C)O)CC1O` [Compound 6b, 2α-ethyl-19-nor-(20S)-1α,25-(OH)2D3], for which, in test [1] (setting [5]), the “Serum Ca (mean ± SEM)” value is given as 7.0 ± 0.1. For the same compound, the “ability to mobilize calcium from bone (in words)” value in test [1] (rats, Table 1) is listed as “strong calcium mobilization response”. Besides, in test [2] (setting [5]), the “Ca transport S/M (mean ± SEM)” value came out at 5.0 ± 0.4. Moreover, the “intestinal activity (in words)” value in test [2] (rats, Table 1) is “marked intestinal activity”.

With `CCC1C(O)CC(=CC=C2CCCC3(C)C2CCC3C(C)CCCC(C)(C)O)CC1O` (stereo not drawn) [Compound 7a, 2β-ethyl-19-nor-1α,25-(OH)2D3], the “Serum Ca (mean ± SEM)” value in test [1] (setting [5]) is on record as 5.0 ± 0.1. The “Ca transport S/M (mean ± SEM)” value in test [2] (setting [5]) turned out to be 3.7 ± 0.3.

On to `CCC1C(O)CC(=CC=C2CCCC3(C)C2CCC3C(C)CCCC(C)(C)O)CC1O` [Compound 7b, 2β-ethyl-19-nor-(20S)-1α,25-(OH)2D3], for which the “Serum Ca (mean ± SEM)” value in test [1] (setting [5]) stood at 5.6 ± 0.1. Also, the “Ca transport S/M (mean ± SEM)” value in test [2] (setting [5]) stood at 4.1 ± 0.3.
